Measured values as given in US9522921B2, “Photochromic spirooxazine compounds” (Sabic Global Technologies, B.V., priority 2015, dated 2016).

Assay: Absorption spectrum in toluene upon irradiation with UV-A radiation
Assay type: physicochemical
Excerpt: The properties of the compound characterized by Structure A were investigated.

color displayed upon irradiation (upon irradiation with UV-A radiation): bluish-green color
maximum absorption (upon irradiation with UV-A radiation (open merocyanine form)): 658 nm
Structure (SMILES): CN1c2ccccc2C(C)(C)C12C=Nc1cc(N(c3ccccc3)c3ccc4ccccc4c3)c3ccccc3c1O2 (centres unmarked) [Structure A, 1,3,3-trimethyl-N-(naphthalen-2-yl)-N-phenylspiro[indoline-2,2′-naphtho[1,2-b][1,4]oxazin]-6′-amine]
